Our source for the IC50 values is patent publication US20250270200A1, “CTPS1 INHIBITORS AND USES THEREOF” (Nimbus Clotho, Inc., priority 2022, published 2025).

This assay has as its target T1, human CTPS1 (Homo sapiens, UniProt P17812).
T1 sequence (P17812 1-591): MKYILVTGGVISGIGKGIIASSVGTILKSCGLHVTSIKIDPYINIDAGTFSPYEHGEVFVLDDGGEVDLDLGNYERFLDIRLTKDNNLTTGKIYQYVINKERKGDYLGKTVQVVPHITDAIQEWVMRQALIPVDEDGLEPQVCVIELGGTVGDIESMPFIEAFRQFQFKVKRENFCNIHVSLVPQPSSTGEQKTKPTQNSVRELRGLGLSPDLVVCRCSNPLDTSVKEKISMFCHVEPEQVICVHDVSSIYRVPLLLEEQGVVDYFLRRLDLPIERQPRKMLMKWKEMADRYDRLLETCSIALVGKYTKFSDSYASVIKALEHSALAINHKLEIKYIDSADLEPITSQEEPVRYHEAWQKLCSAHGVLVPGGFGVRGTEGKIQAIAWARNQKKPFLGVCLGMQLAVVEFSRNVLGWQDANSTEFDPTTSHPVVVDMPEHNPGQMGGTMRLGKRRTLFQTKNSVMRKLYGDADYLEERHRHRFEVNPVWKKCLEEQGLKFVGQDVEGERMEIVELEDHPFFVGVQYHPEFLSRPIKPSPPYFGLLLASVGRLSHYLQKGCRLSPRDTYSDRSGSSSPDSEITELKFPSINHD
Description: ADP-Glo assay, human CTPS1 enzyme inhibition. The class given is biochemical. To be noted: read-out: ADP-Glo_WT_hCTPS1—25 nM_IC50 (IC50). The procedure:
The enzyme inhibitory activities of the compounds of the invention against the target of interest were determined using the ADP-Glo™ assay (Promega). Assays for human CTPS1 and CTPS2 were performed in 1× assay buffer containing 50 mM HEPES (Life Technologies), 10 mM Mg2+, 5 mM KCl, 2 mM DTT, 0.01% F-127, pH to 7.4 accordingly. All reagents are from Sigma-Aldrich, unless specified otherwise. Purified human full length active N-terminal FLAG-8×HIS-TEV tagged CTPS1 (UniprotKB—P17812, […]-CTPS1[1-591]) was generated using a mammalian expression system at Viva Biotech (Shanghai) Ltd.
Purified human CTPS1 protein was prepared in 1× assay buffer to the final working protein concentration required for the reaction. A 2.5 μL volume per well of human CTPS 1 protein was mixed with 0.1 μL per well of test compound dissolved in DMSO and pre-incubated at 25 degrees C. for 10 minutes. 2.5 μL per well of the reaction precursors ATP (UltraPure ATP from ADP-Glo™ kit) and UTP were then added and pre-incubated for an additional 10 minutes at 25 degrees C. Finally, the reaction was initiated by the addition of 5 μL of the reaction precursors L-glutamine and GTP. The final concentration of all reaction components in the assay: ATP (120 μM), UTP (160 μM), GTP (60 μM), L-Glutamine (100 μM), DMSO (1%), hCTPS1 (25 nM). This mixture was incubated for an appropriate amount of time within the determined linear phase of the reaction at 25 degrees C. under sealed plate conditions with constant agitation at 500 revolutions per minute (rpm). ADP-Glo™ reagent was added for 60 minutes (10 μL per well) and subsequently ADP-Glo™ development reagent was added for 60 minutes (20 μL per well) prior to signal detection in a microplate reader (Envision Multilabel Reader, Perkin Elmer). Following each reagent addition over the course of the assay, assay plates were pulse centrifuged for 1 minute at 1000 rpm.
The enzyme converts ATP to ADP and the ADP-Glo™ reagent subsequently depletes any remaining ATP in the reaction system. The ADP-Glo™ detection reagents converts the ADP that has been produced by the enzyme back into ATP, which is then utilized as a substrate together with luciferin for the enzyme luciferase. Light generated by this chemiluminescent reaction is quantified and is directly proportional to the amount of ADP produced by the CTPS1 enzyme reaction. […]

[1] abbreviates: wild-type human CTPS1, 25 nM enzyme, ADP-Glo.
Setting [2] is: wild-type human CTPS1 25 nM, ATP 120 μM, UTP 160 μM, GTP 60 μM, L-glutamine 100 μM, 25 degrees C.

Where two headings read alike, the source gives them in different places.

Turning to `CCOc1cncc(-c2cnc(C(=O)N[C@H](c3cc(NS(=O)(=O)C4CC4)ccn3)[C@H](C)OC)s2)n1` (single isomer, unassigned) [I-47], under setting [1], the IC50 (commonly the point on the concentration scale where inhibition reaches its midpoint) was in the range of 5 to 25 nM.

As for `CCOc1cncc(-c2cnc(C(=O)N[C@@]3(c4cc(NS(=O)(=O)C5CC5)ccn4)CCOC3)s2)n1` (single isomer, unassigned) [I-71], the IC50 under setting [1] lay within 5 to 25 nM.

Turning to `CCOc1cncc(-c2cnc(C(=O)N[C@]3(c4cc(NS(=O)(=O)C5CC5)ccn4)CCOC3)s2)n1` (single isomer, unassigned) [I-72], under setting [1], the IC50 is 5 to 25 nM. Still for that read-out and setting: the result for `CCOc1cncc(-c2cnc(C(=O)NC(C[C@@H]3COCCN3C)c3cc(NS(=O)(=O)C4CC4)ccn3)s2)n1` (single isomer, unassigned) [I-103] reads above 100 nM. Turning to `CCOc1cncc(-c2cnc(C(=O)NC(c3cc(NS(=O)(=O)C4CC4)ccn3)C3CN(C)CCO3)s2)n1` (single isomer, unassigned) [I-105, N-((4-(cyclopropanesulfonamido)pyridin-2-yl)(4-methylmorpholin-2-yl)methyl)-5-(6-ethoxypyrazin-2-yl)thiazole-2-carboxamide], the half-maximal inhibitory concentration (IC50) under setting [1] was in the range of 5 to 25 nM. On the same count and under the same terms, the result for `CCOc1cncc(-c2cnc(C(=O)NC(c3cc(NS(=O)(=O)C4CC4)ccn3)C3CN(C)CCO3)s2)n1` (single isomer, unassigned) [I-106, N-((4-(cyclopropanesulfonamido)pyridin-2-yl)(4-methylmorpholin-2-yl)methyl)-5-(6-ethoxypyrazin-2-yl)thiazole-2-carboxamide] reads 5 to 25 nM; that for `CCOc1cncc(-c2cnc(C(=O)N[C@@H](CN3CCOCC3)c3cc(NS(=O)(=O)C4CC4)ncn3)s2)n1` (single isomer, unassigned) [I-247], 5 to 25 nM. For `CCOc1cncc(-c2cnc(C(=O)N[C@H](c3cc(NS(=O)(=O)C4CC4)ncn3)C3CCOCC3)s2)n1` (single isomer, unassigned) [I-254], under setting [1], the IC50 lay in the range of 5 to 25 nM. Same read-out and setting: the same measure for `CCOc1cncc(-c2cnc(C(=O)N[C@@H](c3cc(NS(=O)(=O)C4CC4)ncn3)C3CCOCC3)s2)n1` (single isomer, unassigned) [I-255]: 5 to 25 nM. For `COC[C@H](NC(=O)c1ncc(-c2cnn3ccc(Cl)cc23)s1)c1nccc(NS(=O)(=O)C2CC2)c1F` (single isomer, unassigned) [II-1], the IC50 under setting [2] lay within 5 to 25 nM. On the same count and under the same terms, the same measure for `COC[C@@H](NC(=O)c1ncc(-c2cnn3ccc(Cl)cc23)s1)c1nccc(NS(=O)(=O)C2CC2)c1F` (single isomer, unassigned) [II-2]: 5 to 25 nM. Turning to `O=C(N[C@H](c1nccc(NS(=O)(=O)C2CC2)c1F)[C@H]1CCOC1)c1ncc(-c2cnn3ccc(Cl)cc23)s1` (single isomer, unassigned) [II-3], under setting [2], the IC50 is 5 to 25 nM. In the case of `O=C(N[C@@H](c1nccc(NS(=O)(=O)C2CC2)c1F)[C@@H]1CCOC1)c1ncc(-c2cnn3ccc(Cl)cc23)s1` (single isomer, unassigned) [II-4], the IC50 under setting [2] lay within 5 to 25 nM. On the same count and under the same terms, the same measure for `O=C(N[C@@H](c1nccc(NS(=O)(=O)C2CC2)c1F)[C@H]1CCOC1)c1ncc(-c2cnn3ccc(Cl)cc23)s1` (single isomer, unassigned) [II-5]: 5 to 25 nM.

Consider `O=C(N[C@H](c1nccc(NS(=O)(=O)C2CC2)c1F)[C@@H]1CCOC1)c1ncc(-c2cnn3ccc(Cl)cc23)s1` (single isomer, unassigned) [II-6], for which, under setting [2], the IC50 is 5 to 25 nM. `CCOc1cncc(-c2cnc(C(=O)N[C@@H](COC)c3cc(NS(=O)(=O)C4CC4)ncn3)s2)n1` (single isomer, unassigned) [II-7]: the IC50 under setting [2] is 5 to 25 nM. With `CCOc1cncc(-c2cnc(C(=O)N[C@H](COC)c3cc(NS(=O)(=O)C4CC4)ncn3)s2)n1` (single isomer, unassigned) [II-8], under setting [2], the IC50 was in the range of 5 to 25 nM.

On to `COC[C@H](NC(=O)c1ncc(-c2cnn3ccc(Cl)cc23)s1)c1nccc(NS(=O)(=O)C2CC2)n1` (single isomer, unassigned) [II-9], for which, under setting [2], the IC50 lay in the range of 5 to 25 nM. With `COC[C@@H](NC(=O)c1ncc(-c2cnn3ccc(Cl)cc23)s1)c1nccc(NS(=O)(=O)C2CC2)n1` (single isomer, unassigned) [II-10], the IC50 under setting [2] fell in the range of 25 to 50 nM. The same measure, in the same setting: the same measure for `CCOc1cncc(-c2cnc(C(=O)N[C@@H](c3cccc(NS(=O)(=O)C(F)F)c3)[C@@H](C)CN3CCCCC3)s2)n1` (single isomer, unassigned) [II-11]: 25 to 50 nM; for `CCOc1cncc(-c2cnc(C(=O)N[C@@H](c3cccc(NS(=O)(=O)C(F)F)c3)[C@H](C)CN3CCCCC3)s2)n1` (single isomer, unassigned) [II-12]: 5 to 25 nM.

With `CCOc1cncc(-c2cnc(C(=O)N[C@H](c3cccc(NS(=O)(=O)C(F)F)c3)[C@H](C)CN3CCCCC3)s2)n1` (single isomer, unassigned) [II-13], the IC50 under setting [2] is above 100 nM. With `CCOc1cncc(-c2cnc(C(=O)N[C@H](c3cccc(NS(=O)(=O)C(F)F)c3)[C@@H](C)CN3CCCCC3)s2)n1` (single isomer, unassigned) [II-14], the IC50 under setting [2] is 50 to 100 nM. For the compound `O=C(N[C@H](c1cc(NS(=O)(=O)C2CC2)ccn1)C1CCOCC1)c1nnc(-c2cnn3ccc(Cl)cc23)s1` (single isomer, unassigned) [II-15], the IC50 under setting [2] lay within 5 to 25 nM. On to `O=C(N[C@@H](c1cc(NS(=O)(=O)C2CC2)ccn1)C1CCOCC1)c1nnc(-c2cnn3ccc(Cl)cc23)s1` (single isomer, unassigned) [II-16], for which, under setting [2], the IC50 lay in the range of 5 to 25 nM.

As to `CCOc1cncc(-c2cnc(C(=O)N[C@H](c3nccc(NS(=O)(=O)C4CC4)c3F)[C@H]3CCOC3)s2)n1` (single isomer, unassigned) [II-17], under setting [2], the IC50 was 5 to 25 nM. On the same count and under the same terms, the result for `CCOc1cncc(-c2cnc(C(=O)N[C@H](c3nccc(NS(=O)(=O)C4CC4)c3F)[C@@H]3CCOC3)s2)n1` (single isomer, unassigned) [II-18] reads 5 to 25 nM; that for `CCOc1cncc(-c2cnc(C(=O)N[C@@H](c3nccc(NS(=O)(=O)C4CC4)c3F)[C@@H]3CCOC3)s2)n1` (single isomer, unassigned) [II-19], 5 to 25 nM.

For the compound `CCOc1cncc(-c2cnc(C(=O)N[C@@H](c3cc(NS(=O)(=O)C4CC4)ccn3)[C@H](C)CN3CCCCC3)s2)n1` (stereo in doubt) [I-51, N-((1R,2R)-1-(4-(cyclopropanesulfonamido)pyridin-2-yl)-2-methyl-3-(piperidin-1-yl)propyl)-5-(6-ethoxypyrazin-2-yl)thiazole-2-carboxamide], the IC50 under setting [1] is 5 to 25 nM. On to `CCOc1cncc(-c2cnc(C(=O)N[C@@H](c3cc(NS(=O)(=O)C4CC4)ccn3)[C@@H](C)CN3CCCCC3)s2)n1` (stereo in doubt) [I-52, N-((1R,2S)-1-(4-(cyclopropanesulfonamido)pyridin-2-yl)-2-methyl-3-(piperidin-1-yl)propyl)-5-(6-ethoxypyrazin-2-yl)thiazole-2-carboxamide], for which the IC50 under setting [1] fell in the range of 50 to 100 nM. On to `CCOc1cncc(-c2cnc(C(=O)N[C@H](c3cc(NS(=O)(=O)C4CC4)ccn3)[C@H](C)CN3CCCCC3)s2)n1` (stereo in doubt) [I-53, N-((1S,2R)-1-(4-(cyclopropanesulfonamido)pyridin-2-yl)-2-methyl-3-(piperidin-1-yl)propyl)-5-(6-ethoxypyrazin-2-yl)thiazole-2-carboxamide], for which the IC50 under setting [1] was in the range of 5 to 25 nM.
